Experimental data as given in article PMC8826726, “Selective Toxicity of Secondary Metabolites from the Entomopathogenic Bacterium Photorhabdus luminescens sonorensis against Selected Plant Parasitic Nematodes of the Tylenchina Suborder” (Microbiology Spectrum, 2022).
In brackets after ≈: the same amount, converted by molar mass.

How the values were obtained:
[1] = system: Meloidogyne incognita; conditions: cited from earlier work
[2] = system: Caenorhabditis elegans; conditions: cited from earlier work
[3] = system: Meloidogyne incognita J2 juveniles; experiment: microbe, parasite or virus in culture; conditions: for LC50 / LC10 / LC25 / LC90: mortality
Description: (§1) Only soil inhabiting (free-living or infective) stages of target and non-target nematode species were considered in the present study. All nematode cultures (except T. semipenetrans) were maintained in the Stock laboratory (University of Arizona). M. incognita was reared in planta using susceptible tomato plants (cv. Roma VF; seedlings with five or six true leaves; courtesy of Dr. J. Brown, University of Arizona). Eggs of M. incognita were extracted from infected tomato plant roots, and J2 were collected after hatching, following the procedures of Atamian et al. ([50]). T. semipenetrans was isolated from infested lemon orchards at the Yuma Agricultural Center, University of Arizona (Yuma, AZ, USA). Eggs of T. semipenetrans were extracted from infected lemon tree roots using the procedures of El-Borai et al. ([51]), and J2 were collected using the same procedure as that described for M. incognita.
(§2) Twelve-well tissue culture plates were used as the experimental arena. For each of the tested nematode species, an inoculum of 100 nematodes, suspended in 20 μL distilled water, was added to each well. […] For PPA (Enamine) and indole (Alfa Aesar), 13 incremental concentrations were tested ranging from 10 to 400 μg/mL in 1 mL of distilled water (DMSO ≤ 1%; vol/vol). […] Distilled water with 1% DMSO was used as the negative control. To measure the combined nematicidal effects of the three SMs, equal concentrations of two or three SMs were mixed in 1:1 or 1:1:1 mixture. For example, a 20 μg/mL solution of a two-SM mixture contained 20 μg from metabolite A and 20 μg metabolite B, dissolved in 1 mL distilled water. Individual or combined SMs from 10 μg/mL to 200 μg/mL (in 20 μg/ml increments) were prepared in distilled water (DMSO ≤ 1%; vol/vol) and used for the bioassays.
(§3) The well plates were covered with their lids and incubated at 25°C in the dark. For the targeted nematode species, nematicidal activity was recorded at 24 h, 48 h, and 72 h after initial exposure to the individual SMs. For the non-target species, data were only recorded at 24 h after initial exposure to the individual SMs. For SM mixtures, mortality was recorded 24 h after initial exposure of the targeted nematode species. Nematodes were probed with a needle to assess if they were alive, dead, or paralyzed. […] Those nematodes that resumed activity upon probing were considered to suffer from temporary paralysis (impaired motility). Paralyzed nematodes were rinsed at least three times in distilled water and held for an additional 24 h to check for their recovery from temporarily paralysis. […] Experiments were repeated at least three times per treatment for each concentration tested.
(§4) For the toxicity data visualization, the relationship between percent mortality or temporary paralysis and metabolite concentration were described by a sigmoidal curve, which was fitted by the logistical function using the statistical software package SigmaPlot for Windows, version 14.0 (Systat Software Inc.). […] Concentration-response data of single metabolites or SM mixtures were pooled for each concentration and subjected to probit regression analysis using the Polo Plus program (LeOra Software). The LC or EC values, along with the corresponding 95% confidence intervals, were estimated for each single SM or SM mixture at each exposure time, depending on the experimental setting.

[4] = system: Tylenchulus semipenetrans J2 juveniles; experiment: microbe, parasite or virus in culture; conditions: mortality
Description: as §1, §2, §3, §4

[5] = in vitro
Description: The non-target species, C. elegans wild-type strain N2 Bristol (courtesy of Dr. G.L. Sutphin, University of Arizona) and Rhabditis blumi DF5010 (Caenorhabditis Genetics Center, University of MN, USA) were maintained in vitro in nematode growth medium (NGM) agar plates seeded with Escherichia coli (Migula) Castellani and Chalmers, strain OP-50, as described previously ([52]). Mixed juveniles and hermaphrodites (5 to 6 days old) were collected from the culture plates prior to the bioassays. Infective third-stage juveniles (IJs) of three non-target entomopathogenic nematode species (H. sonorensis Caborca strain, H. bacteriophora TT01 strain, and Steinernema carpocapsae All strain) were also maintained by rearing them in vivo using wax moth larvae (Galleria mellonella) as the host, according to procedures described previously ([53]), and collected for bioassays within 2 to 4 days of their emergence from nematode-infected cadavers. Nematode population density (number of nematodes per ml) was standardized prior to setting up well-plate bioassays, by adjusting each nematode suspension to a concentration of 100 nematodes in 20 μL of distilled water.
as §2, §3, §4

[6] = system: non-target nematodes versus targeted PPNs; experiment: Selectivity index, non-target nematodes over targeted PPNs; conditions: 24 h LC50
Method: The selectivity index of a given SM was calculated by dividing the averages of the LC50 or EC50 values obtained against each of the selected non-target nematodes by the LC50 or the EC50 values observed for each of the targeted PPN tested.

[7] = In vitro nematicidal assay, values summarised over the non-target nematodes; format: cell-based; conditions: non-target nematodes in 12-well tissue culture plates; 24 h exposure; species for which an LC50 was established; read-out: LC50 values, range over non-target nematodes
[8] = system: HFF cells (human foreskin cells); experiment: MTT cytotoxicity assay; format: cell-based; conditions: tested at 50, 100, 200 μM, data not shown
Method: (§5) The non-cancerous HFF cells (human foreskin cells) and three human cancer cell lines, NCI-H460 (non-small cell lung cancer), SF-268 (central nervous system glioma), and MCF-7 (breast cancer) were used to evaluate the in vitro cytotoxicity of the isolated Photorhabdus SMs. The MTT (3-(4,5-dimethylthiazol-2-yl)-2,5-diphenyltetrazolium bromide) colorimetric method ([54]) was used with doxorubicin as the positive control, and DMSO as the negative control. Photorhabdus SMs were tested at 50, 100, and 200 μM concentrations, and the assays were repeated three times.

[9] = system: MCF-7 (breast cancer); experiment: MTT cytotoxicity assay; format: cell-based, human; conditions: tested at 50, 100, 200 μM, data not shown
Method: as §5

[10] = system: NCI-H460 (non-small cell lung cancer); experiment: MTT cytotoxicity assay; format: cell-based, human; conditions: tested at 50, 100, 200 μM, data not shown
Method: as §5

[11] = system: SF-268 (central nervous system glioma); experiment: MTT cytotoxicity assay; format: cell-based, human; conditions: tested at 50, 100, 200 μM, data not shown
Method: as §5

In the case of `CC(C)c1c(O)cc(C=Cc2ccccc2)cc1O` [3,5-dihydroxy-4-isopropylstilbene], the Nematicidal activity [1] is listed as “no activity” and the “Toxicity to non-target bacterivorous nematode” value [2] is listed as “toxic at similar concentrations (up to 100 μg/ml)”.

In the case of `O=C(O)CC/C=C/c1ccccc1` [PPA, (4E)-5-phenylpent-4-enoic acid], the “Reduction of LC50 for M. incognita versus T. semipenetrans” value ([3]; 24 h postexposure) is reported as 33%, the LC50 ([3]; Meloidogyne incognita, 24 h, 24 h exposure) is reported as 44 µg/mL (≈ 250 µM) and the LC50 ([3]; Meloidogyne incognita, 48 h, 48 h exposure) is reported as 42 µg/mL (≈ 238 µM). For the same compound, the LC50 ([3]; Meloidogyne incognita, 72 h, 72 h exposure) was 38.9 µg/mL (≈ 221 µM), the LC10 ([3]; 24 h exposure) was 29.4 (22.1, 34.6) μg/mL and the LC25 ([3]; 24 h exposure) was 35.8 (29.0, 40.5) μg/mL. For the same compound, the LC50 ([3]; 24 h exposure) was 44.4 µg/mL (≈ 252 µM), the LC90 ([3]; 24 h exposure) was 66.9 (61.4, 75.5) μg/mL and the LC10 ([3]; 48 h exposure) was 27.6 (19.0, 33.3) μg/mL. The LC25 ([3]; 48 h exposure) was 33.6 (25.7, 39.0) μg/mL, the LC90 ([3]; 48 h exposure) was 63.9 (57.2, 75.9) μg/mL and the LC10 ([3]; 72 h exposure) was 24.8 (16.0, 31.0) μg/mL. The LC25 ([3]; 72 h exposure) was 30.7 (22.0, 36.6) μg/mL, the LC90 ([3]; 72 h exposure) was 61.0 (52.7, 76.5) μg/mL and the LC50 ([4]; Tylenchulus semipenetrans, 24 h, 24 h exposure) was 66 µg/mL (≈ 375 µM). For the same compound, the LC50 ([4]; Tylenchulus semipenetrans, 48 h, 48 h exposure) was 59.8 µg/mL (≈ 339 µM), the LC50 ([4]; Tylenchulus semipenetrans, 72 h, 72 h exposure) was 42.2 µg/mL (≈ 239 µM) and the LC10 ([4]; 24 h exposure) was 50.8 (27.0, 60.5) μg/mL. The LC25 ([4]; 24 h exposure) was 57.6 (36.6, 66.0) μg/mL, the LC50 ([4]; 24 h exposure) was 66.3 µg/mL (≈ 376 µM) and the LC90 ([4]; 24 h exposure) was 86.4 (78.2, 109.0) μg/mL. For the same compound, the LC10 ([4]; 48 h exposure) was 42.7 (31.2, 50.0) μg/mL, the LC25 ([4]; 48 h exposure) was 50.1 (39.8, 56.6) μg/mL and the LC90 ([4]; 48 h exposure) was 83.7 (76.3, 96.6) μg/mL. The LC10 ([4]; 72 h exposure) was 19.3 (3.06, 31.9) μg/mL, the LC25 ([4]; 72 h exposure) was 28.0 (8.0, 42.7) μg/mL and the LC90 ([4]; 72 h exposure) was 92.4 (60.6, 312.0) μg/mL. For the same compound, the LC50 at 24 h ([5]; All, Steinernema carpocapsae) was > 400 µg/mL, the LC50 at 24 h ([5]; Caborca, Heterorhabditis sonorensis) was > 400 µg/mL and the LC50 at 24 h ([5]; DF5010, Rhabditis blumi) was 346 µg/mL (≈ 1960 µM). The LC50 at 24 h ([5]; N2 Bristol, Caenorhabditis elegans) was 278 µg/mL (≈ 1580 µM), the LC50 at 24 h ([5]; TT01, Heterorhabditis bacteriophora) was > 400 µg/mL and the “Selectivity index (LC50 for the non-target nematodes over those for the targeted PPNs)” value [6] was 6 to 8. It also gave an LC50 at 24 h [7] of 278 to 421 µg/mL (≈ 1580 to 2390 µM).

In the case of `O=C(O)/C=C/c1ccccc1` [t-CA, trans-cinnamic acid], the “Reduction of the LC90 at 72 h versus 24 h” value ([3]; M. incognita) is reported as 34%, the LC10 ([3]; 24 h exposure) is reported as 42.7 (25.6, 52.2) μg/mL and the LC25 ([3]; 24 h exposure) is reported as 53.0 (38.0, 61.6) μg/mL. For the same compound, the LC90 ([3]; 24 h exposure) was 106.0 (89.6, 159.0) μg/mL, the LC10 ([3]; 48 h exposure) was 37.3 (19.1, 47.2) μg/mL and the LC25 ([3]; 48 h exposure) was 45.7 (29.0, 55.1) μg/mL. The LC90 ([3]; 48 h exposure) was 87.9 (73.0, 137.0) μg/mL, the LC25 ([3]; 72 h exposure) was 45.2 (37.7, 50.4) μg/mL and the LC90 ([3]; 72 h exposure) was 69.7 (62.6, 82.9) μg/mL. The LC10 ([4]; 24 h exposure) was 53.1 (41.2, 61.2) μg/mL, the LC25 ([4]; 24 h exposure) was 62.8 (52.2, 70.0) μg/mL and the LC90 ([4]; 24 h exposure) was 108.0 (100.0, 121.0) μg/mL. For the same compound, the LC10 ([4]; 48 h exposure) was 51.5 (39.7, 59.1) μg/mL, the LC25 ([4]; 48 h exposure) was 60.0 (49.6, 66.6) μg/mL and the LC90 ([4]; 48 h exposure) was 98.0 (90.7, 110.0) μg/mL. The LC25 ([4]; 72 h exposure) was 54.9 (44.4, 61.8) μg/mL, the LC90 ([4]; 72 h exposure) was 95.8 (88.2, 108.0) μg/mL and the “In vitro cytotoxicity: none even at the highest concentration tested” value (shortened to “In vitro cytotoxicity: none even”) [8] was > 200 µM. The “In vitro cytotoxicity: none even” value [9] was > 200 µM, the “In vitro cytotoxicity: none even” value [10] was > 200 µM and the “In vitro cytotoxicity: none even” value [11] was > 200 µM.
